Laboratory results reported in patent US20240355418A1, “MULTIPLEX, TEMPORALLY RESOLVED MOLECULAR SIGNAL RECORDER AND RELATED METHODS” (University of Washington, priority 2021, published 2024).
Several values for one entry are separate records, joined by “and”; a condition that tells them apart may be missing. Equal values may be shown once.

What was measured:
Format in all cases: cell-based
HEK293T cells [1] = assay: DNA Typewriter: sequential prime editing of integrated TAPE-1 arrays, pegRNA pool + PE2, amplicon sequencing; settings: for Overall editing rate: reads exhibiting any editing, of all reads: pegRNA pool + PE2, four days
Excerpt: To test this idea, DNA Tape (“TAPE-1”) was designed by modifying a spacer sequence previously shown to be highly amenable to prime editing by the PE2 enzyme (HEK293 target 3 or HEK3). In TAPE-1, a 3-bp key (GGA) is followed by one tandem array of a 14-bp monomer (TGATGGTGAGCACG) (SEQ ID NO: 57) that includes the PAM sequence (TGG) at positions 4-6. At the 5′-most end of the TAPE-1 array, the key sequence, the first 14-bp monomer, and the first 6 bases of the subsequent 14-bp monomer, collectively comprise an intact 20-bp spacer and PAM (FIG. 1A). A set of 16 pegRNAs was further designed to target TAPE-1, with each pegRNA programming a distinct 5-bp insertion (FIG. 1B). The first 2-bp of the insertion is unique to each of the 16 pegRNAs. The remaining 3-bp of the insertion corresponds to the key (GGA). The inventors reasoned that when a pegRNA/PE2-mediated insertion occurred at the active TAPE-1 site, it would: (1) record the identity of the pegRNA via the 2-bp portion of the insertion; (2) inactivate the current active site by disrupting its sequence; and (3) activate the next monomer along the array, as the newly inserted GGA key, together with the subsequent […], creates an intact 20-bp spacer and PAM. In the next iteration of genome editing, a pegRNA-mediated insertion to the second monomer would be recorded while also moving the type-guide to the third monomer, and then to the fourth, the fifth, and so on (FIG. 1C).
TAPE-1 arrays were synthesized and cloned with varying numbers of monomer units (2×TAPE-1, 3×TAPE-1, 5×TAPE-1), and stably integrated these arrays into the genome of HEK293T cells via the piggyBAC system. The resulting cells were transiently transfected with a pool of plasmids designed to express PE2 (pCMV-PE2-P2A-GFP; Addgene #132776) and sixteen pegRNAs, each programmed to insert an NNGGA barcode to TAPE-1, and harvested them after four days. The TAPE-1 region was PCR-amplified from genomic DNA and sequenced.
For each TAPE-1 array, the sequencing reads were categorized into those in which: (1) no editing occurred; (2) the observed pattern was consistent with sequential, directional editing; or (3) the observed pattern was inconsistent with sequential, directional editing (FIG. 1D-F; Table 1). […] However, within the set of reads showing edits, the data were overwhelmingly consistent with sequential, directional editing. For example, with 2×TAPE-1, the second monomer was edited in 22.8±1.7% of reads in which the first monomer was also edited (FIG. 1D). In contrast, the second monomer was only edited in 0.6% of reads in which the first monomer was not edited. […] Data obtained from 3×TAPE-1 and 5×TAPE-1 were also consistent with sequential genome editing. For example, 98.5% (3×TAPE-1) and 99.0% (5×TAPE-1) of reads that were edited at the second monomer were also edited at the first monomer, while 97.6% (3×TAPE-1) and 98.8% (5×TAPE-1) of reads that were edited at the third monomer were also edited at the first and second monomers (FIG. 1E-1F).
Table 1. Read counts and editing efficiencies for 2×TAPE-1, 3×TAPE-1, and 5×TAPE-1. Sequencing reads were grouped based on the observed editing pattern. For example, reads from 2×TAPE-1 array were categorized into four groups: (A) no edit at either TAPE-1 site (‘OO’); (B) 5-bp insertion at the first TAPE-1 site only (‘XO’); (C) 5-bp insertion at the second TAPE-1 site only (‘OX’); or (D) 5-bp insertions at both TAPE-1 sites (‘XX’). For reads from 5×TAPE-1 array, editing groups were simplified by categorizing directional and iterative editing pattern (OOOOO, XO, XXO, XXXO, XXXXO, and XXXXX) and the erroneous editing patterns (OX, NOX, NNOX, and NNNOX, where N can be either O or X). Editing efficiencies at each site were calculated as the fraction of reads with an edit at the site over the total number of reads in which the site had been activated via insertion of the ‘key’ that completed the spacer sequence. […]

HEK293T cells [2] = assay: Screen of 48 3×TAPE constructs: efficiency and sequential error rate; settings: for Sequential error rate (in words): 48 tested tapes
Method: In each of these 48 constructs, a 3×TAPE region was accompanied by a pegRNA-expressing cassette designed to target it with a 4-6 bp insertion (16 possible 2-bp barcodes followed by a 2-4 bp key sequence). HEK293T cells were transiently transfected with PE2-encoding plasmid and a pool of 48 pegRNA-by-3×TAPE constructs and harvested them after four days. The 3×TAPE region was PCR-amplified from genomic DNA and sequenced.
Two quantities were calculated for each 3×TAPE array: (1) efficiency, calculated by summing all edited reads and dividing by the total number of reads; and (2) sequential error rate, calculated by summing all edited reads inconsistent with sequential, directional editing and dividing by the total number of edited reads (FIG. 7B). […] Indeed, across the full experiment, a longer key sequence was associated with a lower sequential error rate (FIG. 7C). […] Performance characteristics were highly consistent when the experiment was repeated with integration rather than transient transfection of the constructs (FIG. 7E).

iPE2(+) HEK293T = assay: Monoclonal lineage tracing, TargetBC-5×TAPE-1 arrays, sc-RNA-seq; settings: after 25 days of editing, Dox
Excerpt: The ordered manner in which edits accrue with DNA Typewriter, the use of a prime editor with a Cas9 nickase to insert one of many possible “symbols” at the type-guide, the predefined sequences and locations of potential edits, and the fact that one-and-only-one monomer is an active type-guide at any given moment, have the potential to address all of these limitations at once. […] First, a HEK293T cell line that expresses doxycycline (Dox)-inducible PE2 (iPE2(+) HEK293T) was constructed. A lentiviral construct was designed and cloned that includes: (1) the 5×TAPE-1 sequence, associated with a random 8-bp barcode region (TargetBC) at its 5′-end; (2) a transcription cassette for the TargetBC-5×TAPE-1 with a reverse transcription capture sequence for enrichment during sc-RNA-seq; and (3) a constitutive pegRNA expression cassette that targets TAPE-1 for a 6-bp insertion (NNNGGA; referred to below as InsertBC; GGA is the key sequence for TAPE-1) (FIG. 4A). Lentiviral transduction of this construct to the cell line at a high multiplicity of infection (MOI) was followed by serial dilution to isolate a monoclonal cell line that grew from 1 cell to ˜1.2M cells via ˜20 doublings over 25 days in the presence of Dox (FIG. 4B; FIG. 10A). After harvesting, sc-RNA-seq was used to recover and sequence multiple TargetBC-5×TAPE-1 arrays from each of ˜12,000 cells. […]

[3] = 5-bp insertions, conditional on site activated, per replicate, listed as 3xTAPE-1
[4] = 5-bp insertions, conditional on site activated, per replicate, listed as 5xTAPE-1
[5] = 6-bp ins., per replicate, listed as 5xTAPE-1

Molecule: 2×TAPE-1: TAPE-1 array with two monomers, SEQ ID NO: 58 (DNA GGATGATGGTGAGCACGTGATGGTGAGCACGTGATGGTGAGC; listed as DNA, chemistry not fully specified; the letters are possibly those of the target site)
- Second monomer edited, in reads in which the first monomer was also edited (HEK293T cells [1]): 22.8±1.7%
- Second monomer edited, in reads in which the first monomer was not edited (HEK293T cells [1]): 0.6%
- Editing efficiencies: Site 2 (HEK293T cells [1]; 5-bp insertions, conditional on site activated, per replicate, listed as 2xTAPE-1): 0.211 and 0.244 and 0.229
- Editing efficiencies: Site 1 (HEK293T cells [1]; 5-bp insertions, fraction of reads edited at the site over reads in which the site was activated, per transfection replicate, listed as 2xTAPE-1): 0.053 and 0.044 and 0.043
- Overall editing rate: reads exhibiting any editing, of all reads (HEK293T cells [1]): 4.7±0.5%

Molecule: 3×TAPE-1: TAPE-1 array with three monomers, SEQ ID NO: 59 (DNA GGATGATGGTGAGCACGTGATGGTGAGCACGTGATGGTGAGCACGTGATGGTGAGC; listed as DNA, chemistry not fully specified; the letters are possibly those of the target site)
- Reads edited at the second monomer that were also edited at the first monomer (HEK293T cells [1]): 98.5%
- Reads edited at the third monomer that were also edited at the first and second monomers (HEK293T cells [1]): 97.6%
- Editing efficiencies: Site 2 (HEK293T cells [1]; [3]): 0.237 and 0.231 and 0.240
- Editing efficiencies: Site 3 (HEK293T cells [1]; [3]): 0.170 and 0.189 and 0.221
- Editing efficiencies: Site 1 (HEK293T cells [1]; 5-bp insertions, fraction of reads edited at the site over reads in which the site was activated, per transfection replicate, listed as 3xTAPE-1): 0.059 and 0.051 and 0.047
- Overall editing rate: reads exhibiting any editing, of all reads (HEK293T cells [1]): 5.2±0.6%

Molecule: TAPE-1: DNA Tape: 3-bp key GGA and tandem array of 14-bp monomer TGATGGTGAGCACG, from HEK3; SEQ ID NO: 2 (DNA GGATGATGGTGAGCACGTGATGGTGAGCACG; listed as DNA, chemistry not fully specified; the letters are possibly those of the target site)
- Editing rate of the first TAPE-1 monomer (HEK293T cells [1]; PE2 and pegRNAs): ~6%
- Editing rates of the second or third monomers, conditional on preceding monomers already edited (HEK293T cells [1]; PE2 and pegRNAs): ~20%
- Sequential error rate (in words) (HEK293T cells [2]): one of the lowest sequential error rates among the 48 tested tapes
- Fifth sites edited (mean) (iPE2(+) HEK293T): 19.7%
- First sites of active arrays edited (mean) (iPE2(+) HEK293T): 96.8%

Molecule: TAPE-6: DNA Tape design from HEK3 with 4-bp key, SEQ ID NO: 7 (DNA GGACTGATGGTGAGACGTGATGGTGAGACG; listed as DNA, chemistry not fully specified; the letters are possibly those of the target site)
- Sequential error rate (in words) (HEK293T cells [2]): lower sequential error rate than TAPE-1

Molecule: TAPE-27: DNA Tape design, FANCF-based spacer, SEQ ID NO: 32 (DNA GAGATCCGGTCTGCAGCATCCGGTCTGCAGC; listed as DNA, chemistry not fully specified; the letters are possibly those of the target site)
- Greater efficiency than TAPE-1 (HEK293T cells [2]; 3×TAPE): over 50%
- Greater sequential error rate than TAPE-1 (HEK293T cells [2]; 3×TAPE): 2 fold

B1: 5×TAPE-1: TAPE-1 array with five monomers, SEQ ID NO: 60 (nucleic acid)
DNA: GGATGATGGTGAGCACGTGATGGTGAGCACGTGATGGTGAGCACGTGATGGTGAGCACGTGATGGTGAGCACGTGATGGTGAGC
modifications: listed as DNA, chemistry not fully specified; the letters are possibly those of the target site
- Reads edited at the second monomer that were also edited at the first monomer (HEK293T cells [1]): 99.0%
- Reads edited at the third monomer that were also edited at the first and second monomers (HEK293T cells [1]): 98.8%
- Editing efficiencies: Site 2 (HEK293T cells [1]; [4]): 0.210 and 0.212 and 0.206
- Editing efficiencies: Site 3 (HEK293T cells [1]; [4]): 0.151 and 0.144 and 0.154
- Editing efficiencies: Site 4 (HEK293T cells [1]; [4]): 0.129 and 0.119 and 0.150
- Editing efficiencies: Site 5 (HEK293T cells [1]; [4]): 0.098 and 0.194 and 0.175
- Editing efficiencies: Site 1 (HEK293T cells [1]; 5-bp insertions, fraction of reads edited at the site over reads in which the site was activated, per transfection replicate, listed as 5xTAPE-1): 0.066 and 0.059 and 0.051
- Editing efficiencies: Site 1 (HEK293T cells [1]; [5]): 0.055 (2×) and 0.057
- Editing efficiencies: Site 2 (HEK293T cells [1]; [5]): 0.180 and 0.177 and 0.181
- Editing efficiencies: Site 3 (HEK293T cells [1]; [5]): 0.083 and 0.078 and 0.089
- Editing efficiencies: Site 4 (HEK293T cells [1]; [5]): 0.099 and 0.059 and 0.265
- Editing efficiencies: Site 5 (HEK293T cells [1]; [5]): 0.364 and 0.900 and 0.000
- Overall editing rate: reads exhibiting any editing, of all reads (HEK293T cells [1]): 5.9±0.8%
